{"source": "patent US8759512B2", "about": "“Methods of preparation of macrocyclic compounds” (University of Florida Research Foundation, Inc., priority 2008, dated 2014)", "key": {"NIH3T3 cells": {"test_system": "NIH3T3 cells", "type": "cell-based", "details": "NIH3T3, 48 h, MTT", "experimental": "Cell culture medium was purchased from Invitrogen and fetal bovine serum (FBS) from Hyclone. Cells were propagated and maintained in DMEM medium (high glucose) supplemented with 10% FBS at 37° C. humidified air and 5% CO2.\nCells suspended in DMEM containing 10% FBS were plated in 96-well plates (MDA-MB-231: 12,000 cells; NMuMG: 5,000 cells; U2OS: 5,000 cells; HT29: 10,000 cells; IMR-32: 30,000 cells; NIH3T3: 5,000 cells) incubated (37° C., 5% CO2) and 24 h later treated with various concentrations of compound 21 or solvent control (1% EtOH). After another 48 h of incubation, cell viability was measured using MTT according to manufacturer's instructions (Promega).\nMDA-MB-231 and NMuMG cells were also treated with paclitaxel (in DMSO), actinomycin D (in DMSO) and doxorubicin (in H2O) and corresponding solvent control (1%) in the same manner. GI50 and LC50 values were calculated as previously described (K. D. Paull, E. Hamel, L. Malspeis, In Cancer Chemotherapeutic Agents, W. E. Foye, Ed., American Chemical Society, Washington, D.C., 1995, pp. 10-11).\n[formula] [T=absorbance in treated wells (48 h); T0=absorbance at time zero; C=absorbance in control wells (48 h)]"}, "HCT-116 cells": {"test_system": "HCT-116 cells", "assay": "HCT-116 growth inhibition", "type": "cell-based"}, "HDAC": {"test_system": "HDAC", "assay": "HCT-116 HDAC cellular assay (Fluor de Lys substrate)", "type": "cell-based", "details": "HCT-116, 8 h, fluorogenic HDAC substrate"}, "[1]": {"test_system": "HeLa nuclear extract HDACs (class I HDACs 1, 2, and 3)", "assay": "HeLa nuclear extract HDAC inhibition", "type": "biochemical", "details": "HeLa cell nuclear protein extract", "text": "Largazole (21) inhibited HDAC activity from a HeLa cell nuclear protein extract rich in class I HDACs 1, 2, and 3 (BIOMOL); however, it is possible that the thioester is cleaved under assay conditions. To investigate that thiol 29 is a reactive species, we liberated 29 from the acetyl analog 28 of largazole (21) and measured enzymatic activity directly; thiol […] inhibited the HDACs in the nuclear extract of HeLa cells with a similar IC50 value (Table 3)."}}, "data": [{"smiles": "CCCCCCCC(=O)SCC/C=C/[C@@H]1CC(=O)NCc2nc(cs2)C2=N[C@@](C)(CS2)C(=O)N[C@@H](C(C)C)C(=O)O1", "note": "[Compound 21, Largazole]", "values": [{"measurement": "toxicity (cytotoxicity)", "setting": "NIH3T3 cells", "result": "no apparent toxicity"}]}, {"smiles": "CC(=O)SCC/C=C/[C@@H]1CC(=O)NCc2nc(cs2)C2=N[C@@](C)(CS2)C(=O)N[C@@H](C(C)C)C(=O)O1", "note": "[Compound 28]", "values": [{"measurement": "GI50", "setting": "HCT-116 cells", "result": "33 ± 2", "unit": "nM"}, {"measurement": "IC50", "setting": "HDAC", "result": "50 ± 18", "unit": "nM"}, {"measurement": "IC50", "setting": "[1]", "result": "52 ± 27", "unit": "nM"}]}]}
